According to patent US20180243308A1, “PHARMACEUTICAL COMBINATION” (Boehringer Ingelheim International GmbH, priority 2008, published 2018):

Assays:
[1] = test system: Calu-6 xenografts (human NSCLC tumor cell line); assay: subcutaneous Calu-6 NSCLC xenografts, single agents and combination; assay type: in vivo; conditions: Calu-6 xenografts in nude mice, end of experiment (38 days of treatment), suboptimal doses
Experimental: In order to analyse the anti-tumor effects of combining the inhibition of tumor angiogenesis by interfering with the VEGFR signaling cascade with the established anti-proliferative treatment modality of NSCLC with compound B1, the following in vivo experiment was performed. Nude mice carrying established subcutaneous Calu-6 xenografts (human NSCLC tumor cell line) were randomized and treated with either compound B1 or compound A1 alone or with the combination of both drugs.

relapsed ovarian cancer = assay: Phase II maintenance trial of compound A1 versus placebo; assay type: in vivo, human
Experimental: The primary efficacy endpoint of this trial was the Progression Free Survival Rate (PFSR) at 9 months after start of treatment with compound A1. As secondary endpoints PFS rate at 3 months and 6 months, respectively, and time to next anti-tumour treatment were evaluated.
Patients were randomly assigned to receive compound A1 at a dose of 250 mg twice daily or matching placebo. […] Patients were treated until diagnosis of progression of the underlying ovarian cancer disease. Progressive disease, for the analysis of the primary endpoint, was defined as either radiological progression, or tumour marker (CA-125) progression.
In total, 84 patients were entered into the trial. 44 patients were randomised to receive compound A1 at a dose of 250 mg twice daily, and 40 patients to receive matching placebo.

[2] = test system: advanced non-small-cell lung cancer; assay: Phase II double-blind randomized study of two doses of compound A1; assay type: in vivo, human; conditions: for median Progression Free Survival (PFS) time: all patients
Experimental: This study was conducted as a Phase II double-blind, randomized study of two different doses of orally administered compound A1 in patients with advanced non-small-cell lung cancer who had failed at least one prior chemotherapy regimen. The primary efficacy endpoints evaluated were response rate and time to progression. Important secondary endpoints were survival and tolerability of compound A1.
Patients were randomly assigned to receive compound A1 at a dose of 250 mg twice daily or 150 mg twice daily. The dose of compound A1 could be reduced stepwise to no lower than 100 mg twice daily in case of undue toxicity that would prevent chronic treatment. Patients were treated until diagnosis of progression of the underlying lung cancer disease. Progressive disease, for the analysis of the primary endpoint, was defined as radiological evidence of tumour progression according to RECIST criteria.
This randomized study enrolled 73 patients in total, 36 patients at the dose of 250 mg twice daily and 37 patients at the dose of 150 mg twice daily.
The ECOG performance status score is a scale from 0 to 5 with criteria used by doctors and researchers to assess how a patient's disease is progressing, assess how the disease affects the daily living abilities of the patient, and determine appropriate treatment and prognosis (Oken, M. M., Creech, R. H., Tormey, D. C., Horton, J., Davis, T. E., McFadden, E. T., Carbone, P. P.: Toxicity And Response Criteria Of The Eastern Cooperative Oncology Group. Am J Clin Oncol 5:649-655, 1982). […] Overall Survival (OS) time is defined as the length of time a patient lives after they are diagnosed with or treated for a disease.

[3] = test system: recurrent advanced stage NSCLC
Experimental: Patients with advanced stage NSCLC, PS 0-1, previously treated with one first line platinum-based chemotherapy regimen were eligible for this trial. […] Tumor assessments were performed at screening and after every second treatment cycle according to RECIST (Response Evaluation Criteria in Solid Tumors).

NCI-H460 = assay: in vivo anti-tumor efficacy, NCI-H460 xenograft model; conditions: Lung (non-small-cell), NCI-H460, 25 mg/kg/d
PAC-120 = assay: in vivo anti-tumor efficacy, PAC-120 xenograft model; conditions: Prostate (hormone-dependent), PAC-120, 100 mg/kg/d
SKOV3 = assay: in vivo anti-tumor efficacy, SKOV3 xenograft model; conditions: Ovarian, SKOV3, 50 mg/kg/d
Calu-6 = assay: in vivo anti-tumor efficacy, Calu-6 xenograft model; conditions: Lung (non-small-cell), Calu-6, 50 mg/kg/d
HT-29 large tumors = assay: in vivo anti-tumor efficacy, HT-29 large tumors; conditions: Colorectal
FaDu = assay: in vivo anti-tumor efficacy, FaDu xenograft model; conditions: Head and neck, 100 mg/kg/d
HT-29 = assay: in vivo anti-tumor efficacy, HT-29 xenograft model; conditions: Colorectal, HT-29, 100 mg/kg/d
GS-9L = assay: in vivo anti-tumor efficacy, GS-9L syngeneic rat tumor model; conditions: Glioblastoma, 50 mg/kg/d
Rip-Tag = assay: in vivo anti-tumor efficacy, Rip-Tag murine transgenic pancreas model
Caki-1 = assay: in vivo anti-tumor efficacy, Caki-1 xenograft model; conditions: Renal, Caki-1, 100 mg/kg/d
[4] = 250 mg twice daily maintenance, preliminary data output

Nc1nc2[nH]cc(CCc3ccc(C(=O)N[C@@H](CCC(=O)[O-])C(=O)[O-])cc3)c2c(=O)[nH]1.[Na+].[Na+] [compound B1, N-[4-[2-(2-amino-4,7-dihydro-4-oxo-1H-pyrrolo[2,3-d]pyrimidin-5-yl)ethyl]benzoyl]-L-Glutamic acid, disodium salt, heptahydrate, reference compound]
T/C value [1]: 46%

CCS(=O)(=O)O.COC(=O)c1ccc2c(c1)NC(=O)/C2=C(\Nc1ccc(N(C)C(=O)CN2CCN(C)CC2)cc1)c1ccccc1 [compound A1, 3-Z-[1-(4-(N-((4-methyl-piperazin-1-yl)-methylcarbonyl)-N-methyl-amino)-anilino)-1-phenyl-methylene]-6-methoxycarbonyl-2-indolinone-monoethanesulphonate]
T/C value [1]: 33%
PFS rate at 6 months (24 weeks) (relapsed ovarian cancer; [4]): 28.3%
PFS rate at 9 months (36 weeks) (relapsed ovarian cancer; [4]): 16.5%
median time to progression (relapsed ovarian cancer; based on radiological data, disregarding tumour marker progression): 143 days
PFS rate at 3 months (12 weeks) (relapsed ovarian cancer; versus placebo arm): not different between arms
time between tumour marker progression and radiological progression (relapsed ovarian cancer; versus placebo arm): longer
Overall Survival (OS) time ([2]; 150 mg twice daily): 144 days
median Progression Free Survival (PFS) time ([2]; 150 mg twice daily): 48 days
Overall Survival (OS) time ([2]; 250 mg twice daily): 208 days
median Progression Free Survival (PFS) time ([2]; 250 mg twice daily): 53 days
median overall survival (OS) ([2]; all patients (ECOG 0-2)): 153 days
median PFS ([2]; baseline ECOG of 0 or 1, 150 mg twice daily): 81 days
median PFS ([2]; baseline ECOG of 0 or 1, 250 mg twice daily): 85 days
patients with stable disease ([2]; baseline ECOG of 2): one of the 17 patients
reduction (partial response) in tumor size ([2]; one patient, 250 mg twice daily, sustained through 9 months): 74%
median OS ([2]; patients with ECOG score of 0-1): 264 days
patients achieving clinical benefit ([2]; subgroup with ECOG 0 or 1): ~60%
period the patient with the CR has been maintained on monotherapy ([3]; compound A1 monotherapy after combination stage): over 63 weeks
Maximum Tolerated Dose (MTD) of compound A1 ([3]; in combination with standard dose of compound B1 (500 mg/m^2)): 200 mg bid

COC(=O)c1ccc2c(c1)NC(=O)/C2=C(\Nc1ccc(N(C)C(=O)CN2CCN(C)CC2)cc1)c1ccccc1 [compound A, 3-Z-[1-(4-(N-((4-methyl-piperazin-1-yl)-methylcarbonyl)-N-methyl-amino)-anilino)-1-phenyl-methylene]-6-methoxycarbonyl-2-indolinone]
T/C (NCI-H460): T/C 54% @ 25 mg/kg/d
T/C (PAC-120): T/C 34% @ 100 mg/kg/d
T/C (SKOV3): T/C 19% @ 50 mg/kg/d
T/C (Calu-6): T/C 24% @ 50 mg/kg/d
Efficacy (HT-29 large tumors): tumor volume reduction
T/C (FaDu): T/C 11% @ 100 mg/kg/d
T/C (HT-29): T/C 16% @ 100 mg/kg/d
T/C (GS-9L): T/C 32% @ 50 mg/kg/d
Efficacy (cell wraps: interference with tumor formation) (Rip-Tag): interference with
T/C (Caki-1): T/C 13% @ 100 mg/kg/d
